Results taken from patent publication US20120053148A1, “INHIBITORS OF HEPATITIS C VIRUS” (GILEAD SCIENCES, INC., priority 2010, published 2012).

Experiments:
HCV Replicon IB = test: HCV replicon assay in Huh-7 cells, genotype 1b (Rluc luciferase readout); format: cell-based, hepatitis C virus; conditions: Hepatitis C virus, 72 h; 10 μM; Huh-7 HCV replicon cells, 3 days; read-out: % inhibition @ 10 μM HCV Replicon IB
HCV Replicon IA = test: HCV replicon assay in Huh-7 cells, genotype 1a; format: cell-based; conditions: Hepatitis C virus, 72 h, Huh-7 HCV replicon cells, 3 days

SMILES | inhibition at 10 µM (HCV Replicon IB) | inhibition at 10 µM (HCV Replicon IA)
O=C(NCc1cccs1)c1nc(O)c2cc(-c3ccoc3)cc(C(F)(F)F)c2n1 [Compound 48] | 99.9% | 99.4%
O=C(NCc1cccs1)c1nc(O)c2cc(-c3cn[nH]c3)cc(C(F)(F)F)c2n1 [Compound 49] | 99% | 99.7%
O=C(NCc1cccs1)c1cc(Cl)c2cc(-c3ccccc3)cc(C(F)(F)F)c2n1 [Compound 65] | 99.5% | 97.5%
O=C(NCc1cccs1)c1cc(O)c2cc(-c3ccccc3)c(F)c(C(F)(F)F)c2n1 [Compound 59] | 97.2% | 92.7%
O=C(NCc1cccnc1)c1cc(O)c2cc(-c3cn[nH]c3)cc(C(F)(F)F)c2n1 [Compound 11] | 66.1% | 63.2%
O=C(NCc1ccccn1)c1cc(O)c2cc(-c3ccccc3F)cc(C(F)(F)F)c2n1 [Compound 70] | 82% | 69.1%
O=C(NCc1cccs1)c1nc(O)c2cc(-c3ccccc3)cc(C(F)(F)F)c2n1 [Compound 47, 4-oxo-6-phenyl-8-trifluoromethyl-3,4-dihydro-quinazoline-2-carboxylic acid (thiophen-2-ylmethyl)-amide] | 99.8% | 99.7%
Oc1cc(-c2nnc(Nc3ccccc3)o2)nc2c(C(F)(F)F)cc(-c3ccccc3)cc12 [Compound 54] | 98.7% | 97.9%
O=C(NCc1ccccc1)c1cc(O)c2cc(-c3cn[nH]c3)cc(C(F)(F)F)c2n1 [Compound 5] | 99.2% | 99.2%
Cc1cccnc1CNC(=O)c1cc(O)c2cc(-c3cn[nH]c3)cc(C(F)(F)F)c2n1 [Compound 17] | 96.4% | 98.3%
O=C(NCc1cccs1)c1cc(O)c2c(Cl)c(-c3ccccc3)cc(C(F)(F)F)c2n1 [Compound 64] | 88.2% | 79.2%
O=C(NCc1ccncn1)c1cc(O)c2cc(-c3cn[nH]c3)cc(C(F)(F)F)c2n1 [Compound 15] | 47.3% | 59.3%
O=C(NCc1cccs1)c1nc(N2CCCC2)c2cc(-c3ccccc3)cc(C(F)(F)F)c2n1 [Compound 53] | 86.2% | 91.4%
C[C@@H](NC(=O)c1cc(O)c2cc(-c3cn[nH]c3)cc(C(F)(F)F)c2n1)c1ccccc1 (single isomer, unassigned) [Compound 18] | 55.8% | 55.3%
O=C(c1cc(O)c2cc(-c3ccoc3)cc(C(F)(F)F)c2n1)N1CCC(c2ccc(F)cc2)CC1 [Compound 30] | 74.9% | 95.3%
O=C(NCc1ccccn1)c1cc(Cl)c2cc(-c3ccccc3)cc(C(F)(F)F)c2n1 [Compound 67] | 97.8% | 96.9%
O=C(NCc1nccs1)c1cc(O)c2cc(-c3cn[nH]c3)cc(C(F)(F)F)c2n1 [Compound 9] | 98.5% | 98.1%

SMILES | inhibition at 10 µM (HCV Replicon IB) | inhibition at 10 µM (HCV Replicon IA)
O=C(NCc1cccs1)c1cc(Cl)c2cc(-c3ccoc3)cc(C(F)(F)F)c2n1 [Compound 25] | 99.7% | 98.7%
Nc1cc(O)c2cc(-c3ccccc3)cc(C(F)(F)F)c2n1 [Compound 39] | 65% | 92.5%
CC(NC(=O)c1cc(O)c2cc(-c3cn[nH]c3)cc(C(F)(F)F)c2n1)c1ccccn1 (stereo not drawn) [Compound 20] | 89% | 86.1%
O=C(NCc1ccc(Cl)s1)c1cc(O)c2cc(-c3ccoc3)cc(C(F)(F)F)c2n1 [Compound 23] | 99.4% | 99.9%
O=C(NCCc1ccccc1)c1cc(O)c2cc(-c3cn[nH]c3)cc(C(F)(F)F)c2n1 [Compound 16] | 96.7% | 93%
O=C(NCc1cccs1)c1cc(O)c2cc(-c3ccccc3)cc(C(F)(F)F)c2n1 [Compound 34] | 98.3% | 97.8%
O=C(c1cc(O)c2cc(-c3ccoc3)cc(C(F)(F)F)c2n1)N1CCC(c2cccc(F)c2)CC1 [Compound 31] | 58.1% | 98.1%
O=C(NCc1ccc(Cl)s1)c1cc(O)c2cc(-c3cc[nH]n3)cc(C(F)(F)F)c2n1 [Compound 14] | 68.6% | 84.2%
CNc1nc(C(=O)NCc2cccs2)nc2c(C(F)(F)F)cc(-c3ccccc3)cc12 [Compound 52] | 100% | 99.6%
O=C(NCc1cocn1)c1cc(O)c2cc(-c3cn[nH]c3)cc(C(F)(F)F)c2n1 [Compound 10] | 74.3% | 80.7%
O=C(Nc1ccccc1)c1cc(O)c2cc(-c3cn[nH]c3)cc(C(F)(F)F)c2n1 [Compound 19] | 71.1% | 98.5%
O=C(NCc1ccccn1)c1cc(O)c2cc(-c3cn[nH]c3)cc(C(F)(F)F)c2n1 [Compound 12] | 99.2% | 98.2%
Nc1cc(C(=O)NCc2ccccn2)nc2c(C(F)(F)F)cc(-c3ccccc3)cc12 [Compound 68] | 99.7% | 99.9%
Nc1nc(C(=O)NCc2cccs2)nc2c(C(F)(F)F)cc(-c3ccccc3)cc12 [Compound 51] | 100% | 100%
O=C(NCc1cccs1)c1cc(O)c2cc(-c3cc[nH]n3)cc(C(F)(F)F)c2n1 [Compound 35] | 94.5% | 94.2%
O=C(NCc1cccs1)c1cc(O)c2cc(-c3cn[nH]c3)cc(C(F)(F)F)c2n1 [Compound 36] | 99.4% | 99.3%
